Measurements: patent US20250027954A1, “METHODS OF DETECTING AND TREATING CEREBRAL ANEURYSMS” (UNIVERSITY OF PITTSBURGH-OF THE COMMONWEALTH SYSTEM OF …, priority 2022, published 2025)
“Also recorded” adds a separate entry of the source.

How the values were obtained:
[1] = system: cytokine expression in aneurysm-induced cerebral vasculature; assay: Mouse cytokine arrays (96 cytokines) of aneurysm-induced cerebral vasculature; format: in vivo, mouse (C57BL/6); settings: treated aneurysmal mice vs PBS-treated aneurysmal mice or sham surgery controls; n=3 each
Method: Temporal analysis and comparison with pharmacologic treatment were performed.
Mouse cytokine Arrays. Raybiotech cytokine arrays C1000 (AAM-CYT-1000, Raybiotech, Peachtree Corners, GA) were used to analyze 96 cytokines in aneurysm-induced cerebral vasculature at 2 and 3 weeks (n=3 each) and compared with reparixin-, clopidogrel-treated animals, and with sham surgery animals as controls (n=2).

[2] = system: murine cerebral aneurysm model; assay: Mouse intracranial aneurysm model: aneurysm formation; format: in vivo, mouse (C57BL/6); settings: controls 57%, n=6 and 7
Method: Mouse intracranial aneurysm model. Murine intracranial aneurysms were created in female 8-12 week-old C57BL/6 mice (Charles River Laboratories, Wilmington, MA) following established protocols. Briefly, the left common carotid artery and the right renal artery are ligated to induce hypertension. One week later, an Alzet micro-osmotic pump model 1004 (DURECT Corp, Cupertino, CA) was implanted subdermally to deliver Angiotensin II (Bachem AG, Switzerland) at 1000 ng/kg/min; and 10 μL of 0.8% porcine elastase (Worthington Biochemical Corp, Lakewood, NJ) in normal saline was injected into the right basal cistern using stereotactic coordinates: 1.2 mm rostral of bregma, 0.7 mm lateral of midline and 5.3 mm ventral of the dorsal aspect of the skull. The animals were fed a hypertensive diet with 8% NaCl and 0.12% BAPN (TEKLAD). PBS-treated animals received […] injection of phosphate buffered saline subcutaneously every two days. […] All animal experimentation was performed under the Institutional Animal Care and Use Committee-approved protocols of the University of Pittsburgh.

Structure (SMILES) | effect on cytokine expression / inflammatory profile in aneurysmal mice (heatmap, FIG. 4A) [1] | aneurysm formation (mice that developed aneurysms) ([2]; 1 mg/kg clopidogrel, p<0.001) [%] | aneurysm formation (mice that developed aneurysms) ([2]; 10 mg/kg reparixin, p=0.0163) [%]
COC(=O)[C@H](c1ccccc1Cl)N1CCc2sccc2C1 [clopidogrel] | moderate response | 0 | 
CC(C)Cc1ccc([C@@H](C)C(=O)NS(C)(=O)=O)cc1 [reparixin] | vastly attenuated inflammatory profile; also recorded: robust anti-inflammatory effects |  | 14
